Publication PMC4871512, “Drug-Based Lead Discovery: The Novel Ablative Antiretroviral Profile of Deferiprone in HIV-1-Infected Cells and in HIV-Infected Treatment-Naive Subjects of a Double-Blind, Placebo-Controlled, Randomized Exploratory Trial” (PLoS ONE, 2016)
“Also recorded” adds a separate entry of the source.

Experiments:
Type in all cases: cell-based
[1] = in vitro; conditions: human
Description: (§1) The antiretroviral activity of deferiprone was tested in primary cultures of PBMCs, infected in vitro with clinical isolate or mock-infected with clinical isolate-identical cell- and virus-free medium as described. Briefly, to approximate the bi-compartmental mode of HIV-1 infection in vivo, which comprises a cell-generative compartment that provides non-infected but HIV-1 susceptible cells, and an HIV-generative compartment in which they become infected, the cultures were replenished as described with freshly obtained uninfected primary cells and medium at regular intervals, assuring identical cell number in both the treated and control cultures by computerized trypan blue exclusion analysis (Vi-CELL™; Beckman Coulter, Miami, FL); deferiprone concentrations were adjusted as indicated. This model allowed for months-long monitoring of HIV-1 parameters in productively infected cultures.

[2] = system: HIV-1 clinical isolate in PBMCs; test: HIV-1 RNA copy number (Amplicor HIV-1 Monitor) in supernatant of isolate-infected PBMC cultures; conditions: for viral breakthrough during monotherapy: one week to one month
Description: Cell-free supernatants were used for p24 and HIV-1 RNA measurements. p24 core antigen in the supernatant was quantified by ELISA (Retrotek HIV-1 p24®; ZeptoMetrix Corp.; Buffalo, NY). HIV-1 RNA copy number in the supernatant of PBMC cultures and in plasma of trial subjects enrolled in the exploratory deferiprone trial was determined with a PCR-based and FDA-approved assay (Amplicor HIV-1 Monitor®; Roche Diagnostics Corp.; Indianapolis, IN). For clinical samples, the assay was used per the Standard Specimen Processing Procedure (sensitivity limit 400 copies/ml); for cell culture samples, the assay was used in both the Standard Specimen Processing and the UltraSensitive Specimen Processing Procedure (sensitivity limit 50 copies/ml). If not specified further, the term “log10” designates the amount of HIV-1 RNA in the dimensions [log10 / ml]. The Roche Amplicor HIV-1 DNA Test (Roche Diagnostics Corp.; Indianapolis, IN) was used for detection of HIV-1 DNA with the primer pair SK431/462, which amplifies a highly conserved region of the gag genome of HIV-1 subtype B DNA. Results are shown per the assay’s optical readings of a chromogenic reaction that relates absorbance at 450 nm to the HIV-1 DNA copy number and is calibrated by assay-internal copy controls (A450 < 0.350, HIV-1 DNA absent; A450 ≥ 3.0, HIV-1 DNA present in excess of 20 copies; A450 between 0.350 and 3.0, HIV-1 DNA copy number per copy controls). Apoptotic DNA fragmentation was quantified flow-cytometrically, using a terminal deoxynucleotide transferase dUTP nick end-labeling (TUNEL) assay (APO-BRDU™; Phoenix Flow Systems; San Diego, CA). All experiments and assays were performed at least in duplicate.
as §1

[3] = molecular target: T1, deoxyhypusyl hydroxylase (DOHH) (Homo sapiens, UniProt Q9BU89); test: Cellular DOHH activity by metabolic labeling of deoxyhypusyl-eIF5A and hypusyl-eIF5A with (1,8-3H)spermidine
T1 construct: endogenous in cells; host or cells: single-donor primary peripheral blood mononuclear cells (PBMCs), uninfected or infected with a clinical HIV-1 isolate
T1 sequence (Q9BU89 1-302): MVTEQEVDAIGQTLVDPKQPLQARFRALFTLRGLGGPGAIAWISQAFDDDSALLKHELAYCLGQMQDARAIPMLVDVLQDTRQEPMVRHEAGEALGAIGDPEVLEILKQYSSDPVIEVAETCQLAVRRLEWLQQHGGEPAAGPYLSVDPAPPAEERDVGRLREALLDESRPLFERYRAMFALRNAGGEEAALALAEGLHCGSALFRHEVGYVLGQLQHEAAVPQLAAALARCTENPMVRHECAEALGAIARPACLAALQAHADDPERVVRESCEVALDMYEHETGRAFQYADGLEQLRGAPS
Description: Fig 2 Effect of deferiprone in HIV-infected primary cells: Apoptotic DNA fragmentation, deoxyhypusyl-eIF5A accumulation, and DOHH activity. Apoptotic DNA fragmentation (Panel A) was detected by terminal deoxynucleotide transferase dUTP nick end labeling (TUNEL) of single-donor peripheral blood mononuclear cells, maintained in short-term non-replenished cultures as described. Cells were left uninfected and/or untreated; or infected immediately after plating with clinical HIV-1 isolate and 12 hours after infection, treated with 200 μM deferiprone. […] The dose-effect curve for inhibition of cellular DOHH by increasing deferiprone concentrations in short-term non-replenished single-donor cultures (Panel C) was calculated from the accumulation of its ^3H-labeled substrate and the decrease of its ^3H-labeled product; error bars are at the size of the graph symbols and not shown. Black, HIV-infected untreated cells; green, uninfected untreated cells; blue, uninfected deferiprone-treated cells; red, HIV-infected deferiprone-treated cells; large triangles, HIV-infected cells (red) or uninfected cells (blue) treated with 200 μM deferiprone.
Metabolic labeling with (1,8-^3H)spermidine at 5 μCi/ml for 18 hours was performed as described in primary cell cultures of the same volume, viability by dye exclusion, cell number, and donor origin. Following acid hydrolysis of each sample for release of radiolabeled hypusine and deoxyhypusine, separation by ion-exchange chromatography, and liquid scintillation measurement of incorporated label, 18 fractions were collected and the counts in the eluted fractions were proportionally adjusted to a total of 10,000 cpm per sample. This normalization adjusts for variances in the radioactivity of different samples and allows direct comparison of their hypusine-deoxyhypusine elution profiles. Only the hypusine- / deoxyhypusine-containing fractions (6 through 14) were used for analysis.

[4] = after withdrawal of 100 μM deferiprone

Cc1c(O)c(=O)ccn1C [deferiprone, 3-hydroxy-1,2-dimethylpyridin-4-one]
viability at 200 µM [1]: ≥ 95% | viability at 200 μM [1]: > 95% | HIV-1 RNA decrease below the pre-treatment level of ≥10^6 copies/ml ([2]; 100 μM deferiprone, on-drug): one order of magnitude | HIV-1 RNA new steady state ([2]; 100 μM deferiprone, on-drug): ~10^5 copies/ml | viral breakthrough during monotherapy ([2]; 100 μM deferiprone, up to 35 days): did not elicit viral breakthrough; also recorded: did not allow viral breakthrough | viral breakthrough during monotherapy ([2]; 200 μM (supra-threshold) deferiprone, up to 35 days / 5 weeks): did not allow viral breakthrough; also recorded: did not elicit viral breakthrough; also recorded: neither allowed breakthrough | time to reach HIV-1 RNA ≤10^3 copies/ml ([2]; 200 μM deferiprone): 2–4 weeks | HIV-1 RNA decrease below its initial range ([2]; 200 μM deferiprone (Fig 1B)): at least three orders of magnitude | HIV-1 RNA level reached on-drug ([2]; 200 μM deferiprone, depending on combination of viral isolate and PBMCs): ≤ 10^3 copies/ml | decline of HIV-1 RNA production ([2]; 200 μM deferiprone, repeated experiments): 3 log | off-drug period in which HIV-1 RNA production failed to resume ([2]; after 200 μM deferiprone, replenished with fresh CD4+ lymphocytes (Fig 1)): at least 10 days | post-treatment period to reacquire the original level of ≥10^6 copies/ml [2, 4]: about 5 days | rate of HIV-1 RNA rebound to the pre-treatment range [2, 4]: +0.24 log10/ml/day | viral copy number ([2]; below 100 μM deferiprone): only marginally affected | HIV-1 RNA reduction relative to untreated cultures ([2]; off-drug after 200 μM deferiprone, apparently stable): ~ 4 log | newly synthesized deoxyhypusyl-eIF5A accumulated in HIV-infected treated cells, higher than in uninfected treated cultures ([3]; 200 μM deferiprone): ~40% | DOHH activity in the primary cells ([3]; at ≤100 μM deferiprone, infected and uninfected cultures): ≥ 90% | cellular DOHH activity ([3]; at ≥200 μM deferiprone, infected and uninfected cultures): ≤ 8%
